Test results from patent US20160355530A1, “HEPATITIS C INHIBITORS AND USES THEREOF” (AbbVie Inc., priority 2010, published 2016).
Like-named read-outs stand apart in the source and are kept apart here.

Assays:
[1] = system: HCV 1b-BB7 subgenomic replicon; assay: microbe, parasite or virus in culture; assay type: cell-based, HCV genotype 1b; conditions: Hepatitis C virus, stable replicon
[2] = system: chimeric replicon with 2a-J6CF-derived NS5B; assay: microbe, parasite or virus in culture; assay type: cell-based, HCV genotype 2a; conditions: Hepatitis C virus, read-out: 2a chimera 5% FBS EC50
[3] = system: chimeric replicon with genotype 2b NS5B; assay: microbe, parasite or virus in culture; assay type: cell-based, HCV genotype 2b; conditions: Hepatitis C virus, read-out: 2b chimera 5% FBS EC50
[4] = system: chimeric replicon with genotype 3a NS5B; assay: microbe, parasite or virus in culture; assay type: cell-based, HCV genotype 3a; conditions: Hepatitis C virus, read-out: 3a chimera 5% FBS EC50
[5] = system: HCV 1a-H77-C316Y transient subgenomic replicon in Huh-7 derived cell line; assay: microbe, parasite or virus in culture; assay type: cell-based, HCV genotype 1a; conditions: for EC50: Hepatitis C virus, Huh-7, read-out: Transient Replicon 1a H77-C316Y 5% FBS EC50; for Transient Replicon Fold Resistance C316Y/1a: ratio of transient replicon EC50s, C316Y / 1a H77
How it was run: (§1)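 Transient format: T7-transcribed replicon RNA lacking Neo, electroporated into Huh-7-derived cells (5×10^3/well), input RNA checked by luciferase at 4 h. Three-fold compound dilution series, 0.5% DMSO, 4 days at 37° C; EC50 from luciferase signal in lysed cells.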

[6] = system: HCV 1a-H77 transient subgenomic replicon in Huh-7 derived cell line; assay: microbe, parasite or virus in culture; assay type: cell-based, HCV genotype 1a; conditions: Hepatitis C virus, Huh-7; transient replicon, 5% FBS; read-out: Transient Replicon 1a H77 5% FBS EC50
How it was run: as §1

[7] = system: HCV NS5B polymerase 1a-H77-C316Y; assay: biochemical; design: species or system HCV genotype 1a; conditions: ratio of enzyme IC50s, 1a H77-C316Y / 1a H77
How it was run: (§2)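 Incorporation of [3H]UTP (0.284 μM), alongside 20 μM each CTP and ATP, into RNA copied from a 5 nM 2.1 kb genotype 1b negative-strand template was measured after 3 h at 30° C using purified His-tagged NS5B truncated at residue 570. Product was spermine-precipitated, filtered and scintillation-counted; nonlinear regression gave IC50.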

[8] = biological target: T1, HCV NS5B polymerase 1a-H77-C316Y (Hepatitis C virus genotype 1a, UniProt P27958, C2736Y); assay: biochemical; design: species or system HCV genotype 1a
T1 construct: six-histidine tag; made in house; host or cells: E. coli
How it was run: as §2

[9] = biological target: T2, HCV NS5B polymerase 1a-H77 (Hepatitis C virus genotype 1a, UniProt P27958); assay: biochemical; design: species or system HCV genotype 1a; conditions: enzyme, strain 1a H77; read-out: HCV Polymerase Strain 1a H77 IC50
T2 construct: six-histidine tag; made in house; host or cells: E. coli
How it was run: as §2

[10] = biological target: T3, HCV NS5B polymerase 1b BK strain (Hepatitis C virus genotype 1b, UniProt P26663); assay: HCV NS5B polymerase enzymatic inhibition assay, strain 1b BK; assay type: biochemical; conditions: enzyme, strain 1b BK; read-out: HCV Polymerase Strain 1b BK IC50
T3 construct: six-histidine tag; made in house; host or cells: E. coli
How it was run: as §2

[11] = system: HCV 1a-H77 subgenomic replicon; assay: microbe, parasite or virus in culture; assay type: cell-based, HCV genotype 1a; conditions: Hepatitis C virus, stable replicon
[12] = system: chimeric replicon with genotype 4a NS5B; assay: microbe, parasite or virus in culture; assay type: cell-based, HCV genotype 4a; conditions: Hepatitis C virus, read-out: 4a chimera 5% FBS EC50
[13] = strain 1b BB7, 5% FBS + 40% human plasma, read-out: 1b BB7 5% FBS + 40% Human Plasma EC50
[14] = strain 1b BB7, 5% FBS, no human plasma, read-out: 1b BB7 5% FBS EC50
[15] = strain 1b BB7, 5% FBS, read-out: 1b BB7 5% FBS EC50
[16] = 5% FBS, absence of human plasma, read-out: Stable Replicon 1a H77 5% FBS EC50
[17] = strain 1a H77, 5% FBS + 40% human plasma, read-out: 1a H77 5% FBS + 40% Human Plasma EC50
[18] = strain 1a H77, 5% FBS, no human plasma, read-out: 1a H77 5% FBS EC50
[19] = strain 1a H77, 5% FBS, read-out: 1a H77 5% FBS EC50

T3 sequence (P26663 2420-2989): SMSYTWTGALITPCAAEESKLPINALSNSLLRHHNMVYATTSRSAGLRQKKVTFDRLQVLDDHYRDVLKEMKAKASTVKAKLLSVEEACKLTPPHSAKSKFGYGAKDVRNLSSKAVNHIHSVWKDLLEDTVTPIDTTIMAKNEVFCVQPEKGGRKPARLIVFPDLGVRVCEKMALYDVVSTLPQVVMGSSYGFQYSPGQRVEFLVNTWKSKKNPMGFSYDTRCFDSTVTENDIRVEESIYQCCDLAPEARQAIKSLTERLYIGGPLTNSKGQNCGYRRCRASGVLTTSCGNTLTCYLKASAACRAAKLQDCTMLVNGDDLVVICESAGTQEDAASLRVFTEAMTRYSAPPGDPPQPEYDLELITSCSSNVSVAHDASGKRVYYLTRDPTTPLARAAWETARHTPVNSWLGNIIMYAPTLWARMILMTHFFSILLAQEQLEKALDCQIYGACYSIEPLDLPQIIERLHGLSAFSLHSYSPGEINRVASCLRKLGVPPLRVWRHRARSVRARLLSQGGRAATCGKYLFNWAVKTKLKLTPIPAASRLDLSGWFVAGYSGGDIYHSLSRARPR
T2 sequence (P27958 2421-2990): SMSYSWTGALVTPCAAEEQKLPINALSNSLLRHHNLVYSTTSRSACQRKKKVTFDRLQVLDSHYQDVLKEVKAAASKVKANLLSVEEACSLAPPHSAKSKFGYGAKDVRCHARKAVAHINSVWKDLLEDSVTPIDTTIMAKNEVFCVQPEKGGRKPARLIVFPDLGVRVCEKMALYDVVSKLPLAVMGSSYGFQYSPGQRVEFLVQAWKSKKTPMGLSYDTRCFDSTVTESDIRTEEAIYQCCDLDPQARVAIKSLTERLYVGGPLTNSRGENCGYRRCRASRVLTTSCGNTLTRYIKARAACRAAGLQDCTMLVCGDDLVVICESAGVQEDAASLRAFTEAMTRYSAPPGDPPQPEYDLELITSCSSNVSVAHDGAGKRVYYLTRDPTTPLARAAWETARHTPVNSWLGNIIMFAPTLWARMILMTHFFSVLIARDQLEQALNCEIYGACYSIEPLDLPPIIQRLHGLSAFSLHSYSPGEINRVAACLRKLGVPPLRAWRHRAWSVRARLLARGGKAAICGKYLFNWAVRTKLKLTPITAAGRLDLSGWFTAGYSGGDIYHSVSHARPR
T1 sequence (P27958 2421-2990 C2736Y): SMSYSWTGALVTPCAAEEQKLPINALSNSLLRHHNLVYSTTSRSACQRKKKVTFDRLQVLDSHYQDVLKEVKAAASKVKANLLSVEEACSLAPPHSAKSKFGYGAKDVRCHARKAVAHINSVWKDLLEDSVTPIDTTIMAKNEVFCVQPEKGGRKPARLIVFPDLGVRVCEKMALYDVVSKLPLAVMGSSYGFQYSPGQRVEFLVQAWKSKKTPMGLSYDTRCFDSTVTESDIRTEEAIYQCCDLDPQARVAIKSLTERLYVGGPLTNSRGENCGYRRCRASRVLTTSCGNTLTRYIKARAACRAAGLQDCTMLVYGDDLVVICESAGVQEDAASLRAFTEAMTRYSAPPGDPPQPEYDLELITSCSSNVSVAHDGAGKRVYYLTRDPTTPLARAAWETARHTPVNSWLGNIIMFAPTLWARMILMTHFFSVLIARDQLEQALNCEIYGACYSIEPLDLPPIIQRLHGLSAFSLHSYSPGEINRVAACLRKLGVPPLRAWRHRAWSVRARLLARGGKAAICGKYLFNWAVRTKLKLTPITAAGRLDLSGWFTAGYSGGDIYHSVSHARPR

Row | SMILES | EC50 [1, 13] [µM] | EC50 [1, 14] [µM] | EC50 [1, 15] [µM] | EC50 [2] [µM] | EC50 [3] [µM] | EC50 [4] [µM] | EC50 [5] [µM] | Transient Replicon Fold Resistance C316Y/1a [5] [fold] | EC50 [6] [µM] | C316Y/1a Fold Resistance [7] [fold] | IC50 [8] [µM] | IC50 [9] [µM] | IC50 [10] [µM] | EC50 [11, 16] [µM] | EC50 [11, 17] [µM] | EC50 [11, 18] [µM] | EC50 [11, 19] [µM] | EC50 [12] [µM]
1 | COc1ccc(CN(c2cc3oc(-c4ccc(F)cc4)c(C4=NOCN4)c3cc2C2CC2)S(C)(=O)=O)cc1 [Example 145, N-[5-cyclopropyl-3-(4,5-dihydro-1,2,4-oxadiazol-3-yl)-2-(4-fluorophenyl)-1-benzofuran-6-yl]-N-(4-methoxybenzyl)methanesulfonamide] | 1 | 0.08 | 0.08 | 0.372 | 0.836 | 0.163 | 1 | 10 | 0.1 | 333 | 2 | 0.006 | 0.035 | 0.134 | 1 | 0.134 | 0.134 | > 1
2 | CC(C)(O)C(O)CCN(c1cc2oc(-c3ccc(F)cc3)c(C3=NOCN3)c2cc1C1CC1)S(C)(=O)=O (stereo not drawn) [Example 146, N-[5-cyclopropyl-3-(4,5-dihydro-1,2,4-oxadiazol-3-yl)-2-(4-fluorophenyl)-1-benzofuran-6-yl]-N-(3,4-dihydroxy-4-methylpentyl)methanesulfonamide] | 2.71 | 0.0179 | 0.0179 | 0.179 | 0.169 | 0.017 | 0.237 | 21 | 0.0112 | 9 | 0.045 | 0.0049 | 0.025 | 0.0126 | 1.66 | 0.0126 | 0.0126 | 0.277
3 | CS(=O)(=O)N(CCCCCO)c1cc2oc(-c3ccc(F)cc3)c(C3=NOCN3)c2cc1C1CC1 [Example 147, N-[5-cyclopropyl-3-(4,5-dihydro-1,2,4-oxadiazol-3-yl)-2-(4-fluorophenyl)-1-benzofuran-6-yl]-N-(5-hydroxypentyl)methanesulfonamide] | 1.83 | 0.0098 | 0.0098 | 0.0848 | 0.062 | 0.0103 | 0.0778 | 8 | 0.0097 | 14 | 0.049 | 0.0035 | 0.009 | 0.0089 | 1.71 | 0.0089 | 0.0089 | 0.0659
4 | CS(=O)(=O)CCCCN(c1cc2oc(-c3ccc(F)cc3)c(C3=NOCN3)c2cc1C1CC1)S(C)(=O)=O [Example 148, N-[5-cyclopropyl-3-(4,5-dihydro-1,2,4-oxadiazol-3-yl)-2-(4-fluorophenyl)-1-benzofuran-6-yl]-N-[4-(methylsulfonyl)butyl]methanesulfonamide] | 0.688 | 0.004 | 0.004 | 0.0458 | 0.032 | 0.0082 | 0.109 | 21 | 0.0052 | 8 | 0.03 | 0.0039 | 0.006 | 0.0041 | 1.29 | 0.0041 | 0.0041 | 0.0397
5 | CS(=O)(=O)N(CCC1CCS(=O)(=O)C1)c1cc2oc(-c3ccc(F)cc3)c(C3=NOCN3)c2cc1C1CC1 (stereo not drawn) [Example 149, N-[5-cyclopropyl-3-(4,5-dihydro-1,2,4-oxadiazol-3-yl)-2-(4-fluorophenyl)-1-benzofuran-6-yl]-N-[2-(1,1-dioxidotetrahydrothiophen-3-yl)ethyl]methanesulfonamide] | 0.643 | 0.004 | 0.004 | 0.054 | 0.034 | 0.007 | 0.124 | 17 | 0.0073 | 12 | 0.041 | 0.0035 | 0.009 | 0.0088 | 1.02 | 0.0088 | 0.0088 | 0.021
6 | CC(C)CCN(c1cc2oc(-c3ccc(F)cc3)c(C3=NOCN3)c2cc1C1CC1)S(C)(=O)=O [Example 156, N-[5-cyclopropyl-3-(4,5-dihydro-1,2,4-oxadiazol-3-yl)-2-(4-fluorophenyl)-1-benzofuran-6-yl]-N-(3-methylbutyl)methanesulfonamide] | 2.98 | 0.0709 | 0.0709 | 0.718 | 0.893 | 0.0651 | 0.37 | 13 | 0.0291 | 5 | 0.034 | 0.0063 | 0.027 | 0.0418 | 2.3 | 0.0418 | 0.0418 | 0.623
7 | CS(=O)(=O)N(CCCC(=O)O)c1cc2oc(-c3ccc(F)cc3)c(C3=NOCN3)c2cc1C1CC1 [Example 157, 4-{[5-cyclopropyl-3-(4,5-dihydro-1,2,4-oxadiazol-3-yl)-2-(4-fluorophenyl)-1-benzofuran-6-yl](methylsulfonyl)amino}butanoic acid] | 2.46 | 0.0942 | 0.0942 | 1 | 1 | 0.108 | 6.89 | 62 | 0.111 | 11 | 0.054 | 0.005 | 0.016 | 0.109 | 2.79 | 0.109 | 0.109 | > 1
8 | Cc1cnc(-c2c(-c3ccc(F)cc3)oc3cc(N(CCC(C)C)S(C)(=O)=O)c(C4CC4)cc23)[nH]1 [Example 172, N-[5-cyclopropyl-2-(4-fluorophenyl)-3-(5-methyl-1H-imidazol-2-yl)-1-benzofuran-6-yl]-N-(3-methylbutyl)methanesulfonamide] | 1.13 | 0.111 | 0.111 | 1 | 1 | 0.233 | 0.103 | 3 | 0.0404 | 7 | 0.087 | 0.0133 | 0.179 | 0.0674 | 1.22 | 0.0674 | 0.0674 | > 1
9 | CS(=O)(=O)Nc1cc2oc(-c3ccc(F)cc3)c(C3=NOCN3)c2cc1C1CC1 [Example 173, N-[5-cyclopropyl-3-(4,5-dihydro-1,2,4-oxadiazol-3-yl)-2-(4-fluorophenyl)-1-benzofuran-6-yl]methanesulfonamide] | 5.06 | 0.301 | 0.301 | 1 | 1 | 0.146 | 10 | 10 | 1 | 198 | 1.4 | 0.0071 | 0.086 | 0.809 | 9.72 | 0.809 | 0.809 | > 1
